In paper PMC4976201, “Total synthesis of teixobactin” (Nature Communications, 2016):

Tested on: Gram-positive bacterial pathogens
Assay: Antibacterial activity on Gram-positive bacteria, stated in words
Type: cell-based
Conditions: MIC on various Gram-positive bacteria strains
Source text: Synthetic teixobactin and its analogues were subjected to the assessment of their antimicrobial activities by determining their minimal inhibitory concentration on various Gram-positive bacteria strains including methicillin-susceptible S. aureus strain ATCC29213 and methicillin-resistant S. aureus clinical isolates. […] In this effort, the original stereo-configuration of the amino-acid residue should be thoroughly scrutinized. From our study, it is encouraging to find that Orn-containing teixobactin analogues maintained modest antibacterial activity. Since Orn is readily available as compared with L-allo-End and the synthesis of the Orn-containing cyclic depsipeptide (7–11) gave the best yield among all the analogue syntheses, which is amenable to a large-scale synthesis. Through the above-developed convergent synthetic strategy, various linear hexapeptide (1–6), such as 11, can be readily prepared and ligated to the Orn-containing the cyclic depsi-pentapeptide (7–11) to investigate the contribution of each amino acid in the linear peptide fragment towards the antibacterial activity, which will lead to the optimal structure for the development of teixobactin with improved properties.

Row | Structure (SMILES) | antibacterial activity compared with natural teixobactin
1 | CC[C@H](C)[C@H](NC(=O)[C@@H](Cc1ccccc1)NC)C(=O)N[C@@H](CO)C(=O)N[C@H](CCC(N)=O)C(=O)N[C@@H](C(=O)N[C@H](C(=O)N[C@@H](CO)C(=O)N[C@H]1C(=O)N[C@@H](C)C(=O)N[C@@H](CCCN)C(=O)N[C@@H]([C@@H](C)CC)C(=O)O[C@H]1C)[C@@H](C)CC)[C@@H](C)CC [compound 16] | reduced antibacterial activities
2 | CC[C@@H](C)[C@@H](NC(=O)[C@@H](CCC(N)=O)NC(=O)[C@H](CO)NC(=O)[C@@H](NC(=O)[C@@H](Cc1ccccc1)NC)[C@@H](C)CC)C(=O)N[C@H](C(=O)N[C@@H](CO)C(=O)N[C@H]1C(=O)N[C@@H](C)C(=O)N[C@@H](CCCNC(=N)N)C(=O)N[C@@H]([C@@H](C)CC)C(=O)O[C@H]1C)[C@@H](C)CC [compound 14] | reduced antibacterial activities
